Experimental data as given in patent publication US20240294531A1, “COVALENT HETEROCYCLES AND USES THEREOF” (Kumquat Biosciences Inc., priority 2022, published 2024).

Legend:
Type in all cases: binding
BTK wildtype protein [1] = molecular target: T1, BTK wildtype protein (Homo sapiens (Human), UniProt Q06187); assay: Kinact/KI determination for BTK protein inhibitors (Kobs)
Procedure: Test compounds were prepared as 10 mM stock solutions in DMSO (Fisher cat #BP231-100). Human recombinant BTK wildtype protein 393-659 or BTK C481S protein 393-659 was produced in house or purchased from Saromics Biostructures AB (Lund, Sweden). BTK protein was diluted to 1 μM in buffer (20 mM Hepes, pH 7.5, 150 mM NaCl, 1 mM MgCl2, 1 mM DTT). For testing BTK modification, compounds were diluted to 50× final test concentration in DMSO in 96-well storage plates. 1 μL of the diluted 50× compounds were added to appropriate wells in the PCR plate (Fisher cat #AB-0800). Increasing concentrations of compounds were added to separate wells, resulting in final assay compound concentrations of 3 μM, 10 μM, 30 μM and 100 μM. 49 μL of the stock protein solution was added to each well of the 96-well PCR plate. Reactions were mixed carefully. The plate was sealed well with aluminum plate seal and stored in a drawer at room temperature. After different incubation times, the reactions were quenched by adding 5 μL of 2% formic acid (Fisher cat #A117-50) in MilliQ H2O to each well followed by mixing with a pipette. The plate was then resealed with aluminum seal and stored until mass spectrometry analysis.
The extent of covalent modification of BTK proteins was determined by liquid chromatography electrospray mass spectrometry analysis of the intact proteins using a Thermo Q-Exactive Plus mass spectrometer. 20 μL of sample was injected onto a bioZen 3.6 μm Intact C4 column (Phenomenex cat #00B-4767-AN) placed in a column oven set to 40° C. and separated using a LC gradient from 20% to 60% solvent B. Solvent A was 0.1% formic acid and solvent B was 0.1% formic acid in acetonitrile. HESI source settings were set to 40, 5 and 1 for the sheath, auxiliary and sweep gas flow, respectively. The spray voltage was 4 kV, and the capillary temperature was 320° C. S-lens RF level was 50 and auxiliary gas heater temperature was set to 200° C. The mass spectrometry was acquired using a scan range from 650 to 1750 m/z using positive polarity at a mass resolution of 70,000, AGC target of 1e6 ions and maximum injection time of 250 ms. The recorded protein mass spectrum was deconvoluted from the raw data file using Protein Deconvolution v4.0 (Thermo). The protein mass, adduct masses and their corresponding peak intensities were exported to Excel (Microsoft). The peak intensities for the unmodified and modified protein were used to calculate the percent covalent modification of the BTK protein based on the following equation: % BTK protein modification=((BTK−compound)/(BTK)+(BTK−Compound))*100.
The Kinact/KI is a rate constant describing the efficiency of covalent bond formation resulting from the potency (KI) of the first reversible binding event and the maximum potential rate (Kinact) of inactivation. The percent […] protein modification was plotted as a function of time using Prism version 9.4.1 (GraphPad), and the observed rate of modification (Kobs), a first-order rate constant with units of inverse time, was estimated using nonlinear regression at each compound concentration. […] If Kobs is increasing with compound concentration, KI is higher than 3 μM. Kinact/KI can be estimated by plotting Kobs values against each compound concentration used in separate reactions. The Kobs values are fitted to determine Kinact and KI using the following equation, Kobs=(Kinact×[compound conc])/(KI+[compound conc]).
Target sequence in this assay (Q06187 393-659): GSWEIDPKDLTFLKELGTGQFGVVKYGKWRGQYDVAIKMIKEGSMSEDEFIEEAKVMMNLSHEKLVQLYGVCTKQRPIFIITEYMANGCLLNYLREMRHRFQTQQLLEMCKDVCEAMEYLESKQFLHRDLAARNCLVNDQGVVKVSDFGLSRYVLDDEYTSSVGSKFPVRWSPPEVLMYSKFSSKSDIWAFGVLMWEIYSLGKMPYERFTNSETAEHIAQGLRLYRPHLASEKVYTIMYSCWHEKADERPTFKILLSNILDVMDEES

BTK wildtype protein [2] = molecular target: T1, BTK wildtype protein; assay: BTK wildtype HTRF displacement assay; conditions: 1-hour incubation; read-out: BTK (wt) IC50
Procedure, shortened: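 Full-length N-terminal GST-tagged BTK incubated 1 h at room temperature with compound (6 doses, four-fold dilutions from 5 μM top) plus kinase tracer 239 and anti-GST-Tb antibody. Tracer displacement read as TR-FRET 665/620 ratio, background-subtracted using no-protein control. IC50 from four-parameter fit constrained 0–100% inhibition.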
Target sequence in this assay (Q06187 2-659): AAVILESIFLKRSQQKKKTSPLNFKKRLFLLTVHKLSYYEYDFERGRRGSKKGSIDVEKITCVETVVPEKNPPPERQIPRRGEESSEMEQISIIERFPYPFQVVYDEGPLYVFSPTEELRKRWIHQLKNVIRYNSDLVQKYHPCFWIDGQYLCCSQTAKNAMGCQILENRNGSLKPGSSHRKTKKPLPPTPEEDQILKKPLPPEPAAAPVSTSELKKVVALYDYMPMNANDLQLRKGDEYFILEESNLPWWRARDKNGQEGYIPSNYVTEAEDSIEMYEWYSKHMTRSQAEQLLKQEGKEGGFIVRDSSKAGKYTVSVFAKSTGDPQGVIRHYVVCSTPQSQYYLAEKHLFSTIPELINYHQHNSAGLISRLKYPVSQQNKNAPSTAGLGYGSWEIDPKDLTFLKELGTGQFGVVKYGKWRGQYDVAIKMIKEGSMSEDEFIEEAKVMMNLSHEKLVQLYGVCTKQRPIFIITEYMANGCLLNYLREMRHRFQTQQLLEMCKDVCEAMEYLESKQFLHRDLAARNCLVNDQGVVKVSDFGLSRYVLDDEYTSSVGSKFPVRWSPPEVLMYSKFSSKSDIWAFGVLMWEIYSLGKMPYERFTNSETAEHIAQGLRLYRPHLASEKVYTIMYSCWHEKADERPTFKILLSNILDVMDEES

BTK C481S protein = BTK C481S protein (Homo sapiens (Human), UniProt Q06187, C481S); assay: BTK C481S HTRF displacement assay; conditions: 1-hour incubation
Sequence of BTK C481S protein (Q06187 2-659 C481S): as the sequence (Q06187 2-659) above, with C480S counted along it
Procedure, shortened: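 N-terminal GST-tagged BTK C481S (2-659) incubated 1 hour at room temperature with compound (6 doses, four-fold from 5 μM), 50 nM kinase tracer 239 and anti-GST-Tb antibody. TR-FRET 665/620 ratio, background-subtracted; IC50 from constrained four-parameter fit. KI=IC50/(1+[Tracer]/Kd), tracer Kd 54 nM.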

For `CN(C(=O)n1cncn1)C1CCCC(C2CCNc3c(C(N)=O)c(-c4ccc(Oc5ccccc5)cc4)nn32)C1` (centres unmarked) [Compound 134, 7-(3-(N-methyl-1H-1,2,4-triazole-1-carboxamido)cyclohexyl)-2-(4-phenoxyphenyl)-4,5,6,7-tetrahydropyrazolo[1,5-a]pyrimidine-3-carboxamide], the “BTK (wt) Kobs” value (BTK wildtype protein [1]) was 132, 134, 136, 137, 138, 140, 150, 152, 153, 154, 155, M^−1 · s^−1, the IC50 (BTK wildtype protein [2]) was no more than 1000 nM and the IC50 (BTK C481S protein) was no more than 1000 nM.
In the case of `NC(=O)c1c(-c2ccc(Oc3ccccc3)cc2)nn2c1NCCC2C1CCN(C(=O)n2cncn2)CC1` (centres unmarked) [Compound 136, 7-(1-(1H-1,2,4-triazole-1-carbonyl)piperidin-4-yl)-2-(4-phenoxyphenyl)-4,5,6,7-tetrahydropyrazolo[1,5-a] pyrimidine-3-carboxamide], the “BTK (wt) Kobs” value (BTK wildtype protein [1]) is reported as 132, 134, 136, 137, 138, 140, 150, 152, 153, 154, 155, M^−1 · s^−1, the IC50 (BTK wildtype protein [2]) is reported as no more than 1000 nM and the IC50 (BTK C481S protein) is reported as no more than 1000 nM.
In the case of `NC(=O)c1c(-c2ccc(Oc3ccccc3)cc2)nn2c1NCCC2C1CCN1C(=O)n1cncn1` (centres unmarked) [Compound 137, 7-(1-(1H-1,2,4-triazole-1-carbonyl)azetidin-2-yl)-2-(4-phenoxyphenyl)-4,5,6,7-tetrahydropyrazolo[1,5-a] pyrimidine-3-carboxamide], the “BTK (wt) Kobs” value (BTK wildtype protein [1]) is reported as 132, 134, 136, 137, 138, 140, 150, 152, 153, 154, 155, M^−1 · s^−1, the IC50 (BTK wildtype protein [2]) is reported as greater than 1000 nM and the IC50 (BTK C481S protein) is reported as no more than 1000 nM.
For `NC(=O)c1c(-c2ccc(Oc3ccccc3)cc2)nn2c1NCCC2[C@H]1CCCN1C(=O)n1cncn1` (stereo partly drawn) [Compound 140, 7-((R)-1-(1H-1,2,4-triazole-1-carbonyl)pyrrolidin-2-yl)-2-(4-phenoxyphenyl)-4,5,6,7-tetrahydropyrazolo[1,5-a] pyrimidine-3-carboxamide], the “BTK (wt) Kobs” value (BTK wildtype protein [1]) was 132, 134, 136, 137, 138, 140, 150, 152, 153, 154, 155, M^−1 · s^−1, the IC50 (BTK wildtype protein [2]) was greater than 1000 nM and the IC50 (BTK C481S protein) was no more than 1000 nM.
For `COc1ccc(F)cc1C(=O)NCc1ccc(-c2nn(C3CCC(N(C)C(=O)n4cncn4)C3)c(N)c2C(N)=O)cc1` (centres unmarked) [Compound 150, N-(3-(5-amino-4-carbamoyl-3-(4-((5-fluoro-2-methoxybenzamido)methyl)phenyl)-1H-pyrazol-1-yl)cyclopentyl)-N-methyl-1H-1,2,4-triazole-1-carboxamide], the “BTK (wt) Kobs” value (BTK wildtype protein [1]) was 132, 134, 136, 137, 138, 140, 150, 152, 153, 154, 155, M^−1 · s^−1 and the IC50 (BTK C481S protein) was no more than 1000 nM.
With `COc1ccc(F)cc1C(=O)NCc1ccc(-c2nn(C3CCCC4(CCN4C(=O)n4cncn4)C3)c3ncnc(N)c23)cc1` (centres unmarked) [Compound 152, N-(4-(1-(1-(1H-1,2,4-triazole-1-carbonyl)-1-azaspiro[3.5]nonan-6-yl)-4-amino-1H-pyrazolo[3,4-d]pyrimidin-3-yl)benzyl)-5-fluoro-2-methoxybenzamide] the “BTK (wt) Kobs” value (BTK wildtype protein [1]) was 132, 134, 136, 137, 138, 140, 150, 152, 153, 154, 155, M^−1 · s^−1 and the IC50 (BTK C481S protein) was no more than 1000 nM.
In the case of `COc1ccc(F)cc1C(=O)NCc1ccc(-c2nn(C(C)C(C)CN(C)C(=O)n3cncn3)c3ncnc(N)c23)cc1` (centres unmarked) [Compound 248, N-(3-(4-amino-3-(4-((5-fluoro-2-methoxybenzamido)methyl)phenyl)-1H-pyrazolo[3,4-d]pyrimidin-1-yl)-2-methylbutyl)-N-methyl-1H-1,2,4-triazole-1-carboxamide], the “BTK (wt) Kobs” value (BTK wildtype protein [1]) is reported as 248, 249, 250, 253, 254, 256, 259, 260, 261, 264, 265, M^−1 · s^−1 and the IC50 (BTK wildtype protein [2]) is reported as no more than 1000 nM.
`NC(=O)c1c(-c2ccc(Oc3ccccc3)cc2)nn(C2CCCC3C2CCN3C(=O)n2cncn2)c1N` (centres unmarked) [Compound 253, 1-(1-(1H-1,2,4-triazole-1-carbonyl)octahydro-1H-indol-4-yl)-5-amino-3-(4-phenoxyphenyl)-1H-pyrazole-4-carboxamide] was tested, and the “BTK (wt) Kobs” value (BTK wildtype protein [1]) was 248, 249, 250, 253, 254, 256, 259, 260, 261, 264, 265, M^−1 · s^−1.
Work on `COc1ccc(F)cc1C(=O)NCc1ccc(-c2nn(C[C@H]3CCC[C@H]3CN(C)C(=O)n3cncn3)c3ncnc(N)c23)cc1` [Compound 307, N-(((1R,2S)-2-((4-amino-3-(4-((5-fluoro-2-methoxybenzamido)methyl)phenyl)-1H-pyrazolo [3,4-d]pyrimidin-1-yl)methyl)cyclopentyl)methyl)-N-methyl-1H-1,2,4-triazole-1-carboxamide] yielded an IC50 (BTK wildtype protein [2]) of no more than 1000 nM and an IC50 (BTK C481S protein) of no more than 1000 nM.
`CC(CN(C)C(=O)n1cncn1)C1CCNc2c(C(N)=O)c(-c3ccc(Oc4ccccc4)cc3)nn21` (centres unmarked) [Compound 308, 7-(1-(N-methyl-1H-1,2,4-triazole-1-carboxamido)propan-2-yl)-2-(4-phenoxyphenyl)-4,5,6,7-tetrahydropyrazolo[1,5-a] pyrimidine-3-carboxamide] gave an IC50 (BTK wildtype protein [2]) of no more than 1000 nM and an IC50 (BTK C481S protein) of no more than 1000 nM.
`CC(CC1CCNc2c(C(N)=O)c(-c3ccc(Oc4ccccc4)cc3)nn21)N(C)C(=O)n1cncn1` (centres unmarked) [Compound 309, 7-(2-(N-methyl-1H-1,2,4-triazole-1-carboxamido)propyl)-2-(4-phenoxyphenyl)-4,5,6,7-tetrahydro-pyrazolo[1,5-a]pyrimidine-3-carboxamide] gave an IC50 (BTK wildtype protein [2]) of no more than 1000 nM and an IC50 (BTK C481S protein) of no more than 1000 nM.
Molecule `COc1ccc(F)cc1C(=O)NCc1ccc(-c2nn(CC3CCC(N(C)C(=O)n4cncn4)C3)c3ncnc(N)c23)cc1` (centres unmarked) [Compound 311, N-(3-((4-amino-3-(4-((5-fluoro-2-methoxybenzamido)methyl)phenyl)-1H-pyrazolo[3,4-d]pyrimidin-1-yl)methyl)cyclopentyl)-N-methyl-1H-1,2,4-triazole-1-carboxamide] has an IC50 (BTK wildtype protein [2]) of no more than 1000 nM and an IC50 (BTK C481S protein) of no more than 1000 nM.
Molecule `COc1ccc(F)cc1C(=O)NCc1ccc(-c2nn([C@H]3CC[C@H](N(C)C(=O)n4cncn4)C3)c3ncnc(N)c23)cc1` [Compound 312, N-((1S,3S)-3-(4-amino-3-(4-((5-fluoro-2-methoxybenzamido)methyl)phenyl)-1H-pyrazolo [3,4-d]pyrimidin-1-yl)cyclopentyl)-N-methyl-1H-1,2,4-triazole-1-carboxamide] has an IC50 (BTK wildtype protein [2]) of no more than 1000 nM and an IC50 (BTK C481S protein) of no more than 1000 nM.
`COc1ccc(F)cc1C(=O)NCc1ccc(-c2nn(CC3CN(C(C)=O)CCN3C(=O)n3cncn3)c3ncnc(N)c23)cc1` (centres unmarked) [Compound 313, N-(4-(1-((4-acetyl-1-(1H-1,2,4-triazole-1-carbonyl)piperazin-2-yl)methyl)-4-amino-1H-pyrazolo[3,4-d]pyrimidin-3-yl)benzyl)-5-fluoro-2-methoxybenzamide] showed an IC50 (BTK wildtype protein [2]) greater than 1000 nM and an IC50 (BTK C481S protein) greater than 1000 nM.
Work on `COc1ccc(F)cc1C(=O)NCc1ccc(-c2nn(C[C@H](C)N(C)C(=O)n3cncn3)c3ncnc(N)c23)cc1` [Compound 315, (S)-N-(1-(4-amino-3-(4-((5-fluoro-2-methoxybenzamido)methyl)phenyl)-1H-pyrazolo[3,4-d]pyrimidin-1-yl)propan-2-yl)-N-methyl-1H-1,2,4-triazole-1-carboxamide] yielded an IC50 (BTK wildtype protein [2]) greater than 1000 nM and an IC50 (BTK C481S protein) greater than 1000 nM.
With `COc1ccc(F)cc1C(=O)NCc1ccc(-c2nn(CCN(C(=O)n3cncn3)C3CC3)c3ncnc(N)c23)cc1` [Compound 316, N-(2-(4-amino-3-(4-((5-fluoro-2-methoxybenzamido)methyl)phenyl)-1H-pyrazolo[3,4-d]pyrimidin-1-yl)ethyl)-N-cyclopropyl-1H-1,2,4-triazole-1-carboxamide] the IC50 (BTK wildtype protein [2]) was greater than 1000 nM and the IC50 (BTK C481S protein) was greater than 1000 nM.
